Results from PubChem BioAssay (NCI).
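Dose response: 5 concentrations. Exposure: 48 h. Format: 96-well plates. Endpoint: linear interpolation; highest concentration if not reached. TGI: concentration producing complete growth inhibition.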

Key:
Assay in all cases: NCI-60 cell line screen, 48 h
786-0 renal = system: 786-0 renal
ACHN renal = system: ACHN renal
MDA-MB-435 = system: MDA-MB-435
EKVX NSCLC = system: EKVX NSCLC
SK-OV-3 ovarian = system: SK-OV-3 ovarian
COLO 205 colon = system: COLO 205 colon
M14 melanoma = system: M14 melanoma
OVCAR-8 ovarian = system: OVCAR-8 ovarian
BT-549 breast = system: BT-549 breast
SF-268 CNS = system: SF-268 CNS
CCRF-CEM leukemia = system: CCRF-CEM leukemia
NCI-H23 lung = system: NCI-H23 lung
SN12C renal = system: SN12C renal
NCI/ADR-RES ovarian = system: NCI/ADR-RES ovarian
HCT-116 colon = system: HCT-116 colon
RXF 393 renal = system: RXF 393 renal
SK-MEL-2 melanoma = system: SK-MEL-2 melanoma
HOP-62 NSCLC = system: HOP-62 NSCLC
HCT-15 colon = system: HCT-15 colon
MCF7 breast = system: MCF7 breast
MALME-3M melanoma = system: MALME-3M melanoma
PC-3 prostate = system: PC-3 prostate
UACC-257 melanoma = system: UACC-257 melanoma
NCI-H460 lung = system: NCI-H460 lung
MOLT-4 leukemia = system: MOLT-4 leukemia
SF-295 CNS = system: SF-295 CNS
SNB-19 CNS = system: SNB-19 CNS
HCC-2998 colon = system: HCC-2998 colon
A549 NSCLC = system: A549 NSCLC
UACC-62 melanoma = system: UACC-62 melanoma
SK-MEL-5 melanoma = system: SK-MEL-5 melanoma
MDA-MB-231 breast = system: MDA-MB-231 breast
SF-539 CNS = system: SF-539 CNS
HL-60(TB) leukemia = system: HL-60(TB) leukemia
T-47D breast = system: T-47D breast
IGROV1 ovarian = system: IGROV1 ovarian
SNB-75 CNS = system: SNB-75 CNS
SW-620 colon = system: SW-620 colon
K-562 leukemia = system: K-562 leukemia
SK-MEL-28 melanoma = system: SK-MEL-28 melanoma
SR leukemia = system: SR leukemia
HT29 colon = system: HT29 colon
OVCAR-5 ovarian = system: OVCAR-5 ovarian
NCI-H522 lung = system: NCI-H522 lung
TK-10 renal = system: TK-10 renal
NCI-H226 lung = system: NCI-H226 lung
U251 CNS = system: U251 CNS
OVCAR-4 ovarian = system: OVCAR-4 ovarian
UO-31 renal = system: UO-31 renal
MDA-N = system: MDA-N
DU-145 prostate = system: DU-145 prostate
HS 578T breast = system: HS 578T breast
A498 renal = system: A498 renal
OVCAR-3 ovarian = system: OVCAR-3 ovarian
LOX IMVI melanoma = system: LOX IMVI melanoma

## CC(/C=C/c1ccccc1)=N\NC(=S)N/N=C(C)/C=C/c1ccccc1
786-0 renal
  TGI: 29.5 µM
ACHN renal
  TGI: > 100 µM
MDA-MB-435
  TGI: > 100 µM
EKVX NSCLC
  TGI: > 100 µM
SK-OV-3 ovarian
  TGI: > 100 µM
COLO 205 colon
  TGI: > 100 µM
M14 melanoma
  TGI: > 100 µM
OVCAR-8 ovarian
  TGI: 64.5 µM
BT-549 breast
  TGI: 56.7 µM
SF-268 CNS
  TGI: 21.7 µM
CCRF-CEM leukemia
  TGI: > 100 µM
NCI-H23 lung
  TGI: > 100 µM
SN12C renal
  TGI: > 100 µM
NCI/ADR-RES ovarian
  TGI: 99.5 µM
HCT-116 colon
  TGI: > 100 µM
RXF 393 renal
  TGI: 40.7 µM
SK-MEL-2 melanoma
  TGI: 50.3 µM
HOP-62 NSCLC
  TGI: 57.7 µM
HCT-15 colon
  TGI: > 100 µM
MCF7 breast
  TGI: > 100 µM
MALME-3M melanoma
  TGI: > 100 µM
PC-3 prostate
  TGI: > 100 µM
UACC-257 melanoma
  TGI: > 100 µM
NCI-H460 lung
  TGI: 25.6 µM
MOLT-4 leukemia
  TGI: > 100 µM
SF-295 CNS
  TGI: 61.6 µM
SNB-19 CNS
  TGI: 74.7 µM
HCC-2998 colon
  TGI: > 100 µM
A549 NSCLC
  TGI: > 100 µM
UACC-62 melanoma
  TGI: > 100 µM
SK-MEL-5 melanoma
  TGI: 42.8 µM
MDA-MB-231 breast
  TGI: 33.9 µM
SF-539 CNS
  TGI: 47.2 µM
HL-60(TB) leukemia
  TGI: > 100 µM
T-47D breast
  TGI: > 100 µM
IGROV1 ovarian
  TGI: > 100 µM
SNB-75 CNS
  TGI: 48.7 µM
SW-620 colon
  TGI: > 100 µM
K-562 leukemia
  TGI: > 100 µM
SK-MEL-28 melanoma
  TGI: > 100 µM
SR leukemia
  TGI: > 100 µM
HT29 colon
  TGI: > 100 µM
OVCAR-5 ovarian
  TGI: > 100 µM
NCI-H522 lung
  TGI: 69 µM
TK-10 renal
  TGI: 46 µM
NCI-H226 lung
  TGI: 63.1 µM
U251 CNS
  TGI: 16.2 µM
OVCAR-4 ovarian
  TGI: 28.5 µM
UO-31 renal
  TGI: > 100 µM
MDA-N
  TGI: > 100 µM
DU-145 prostate
  TGI: > 100 µM
HS 578T breast
  TGI: > 100 µM
A498 renal
  TGI: 7.51 µM
OVCAR-3 ovarian
  TGI: 66.5 µM
LOX IMVI melanoma
  TGI: 28.8 µM
